Test results from PubChem BioAssay (NCI).
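Where inhibition never reached the appropriate level, the endpoint shown equals the highest concentration tested. Otherwise, values were interpolated linearly from a five-concentration, 48-hour dose response in 96-well plates. TGI: total growth inhibition.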

Legend:
Test in all cases: inhibition of tumour cell growth, NCI panel, 48 h
A549 NSCLC = system: A549 NSCLC
COLO 205 colon = system: COLO 205 colon
NCI-H23 lung = system: NCI-H23 lung
HCT-116 colon = system: HCT-116 colon
CAKI-1 renal = system: CAKI-1 renal
HOP-92 NSCLC = system: HOP-92 NSCLC
EKVX NSCLC = system: EKVX NSCLC
K-562 leukemia = system: K-562 leukemia
LOX IMVI melanoma = system: LOX IMVI melanoma
CCRF-CEM leukemia = system: CCRF-CEM leukemia
U251 CNS = system: U251 CNS
NCI-H460 lung = system: NCI-H460 lung
IGROV1 ovarian = system: IGROV1 ovarian
SF-295 CNS = system: SF-295 CNS
SF-539 CNS = system: SF-539 CNS
SK-MEL-2 melanoma = system: SK-MEL-2 melanoma
MOLT-4 leukemia = system: MOLT-4 leukemia
A498 renal = system: A498 renal
SW-620 colon = system: SW-620 colon
TK-10 renal = system: TK-10 renal
UACC-62 melanoma = system: UACC-62 melanoma
HOP-62 NSCLC = system: HOP-62 NSCLC
SK-OV-3 ovarian = system: SK-OV-3 ovarian
786-0 renal = system: 786-0 renal
UO-31 renal = system: UO-31 renal
MCF7 breast = system: MCF7 breast
SNB-75 CNS = system: SNB-75 CNS
MDA-MB-435 = system: MDA-MB-435
RPMI-8226 leukemia = system: RPMI-8226 leukemia
SR leukemia = system: SR leukemia
HS 578T breast = system: HS 578T breast
KM12 colon = system: KM12 colon
MALME-3M melanoma = system: MALME-3M melanoma
T-47D breast = system: T-47D breast
OVCAR-4 ovarian = system: OVCAR-4 ovarian
OVCAR-5 ovarian = system: OVCAR-5 ovarian
SF-268 CNS = system: SF-268 CNS
NCI-H522 lung = system: NCI-H522 lung
NCI-H226 lung = system: NCI-H226 lung
HL-60(TB) leukemia = system: HL-60(TB) leukemia
OVCAR-3 ovarian = system: OVCAR-3 ovarian
RXF 393 renal = system: RXF 393 renal
PC-3 prostate = system: PC-3 prostate
UACC-257 melanoma = system: UACC-257 melanoma
NCI/ADR-RES ovarian = system: NCI/ADR-RES ovarian
MDA-MB-231 breast = system: MDA-MB-231 breast
SNB-19 CNS = system: SNB-19 CNS
DU-145 prostate = system: DU-145 prostate
SK-MEL-5 melanoma = system: SK-MEL-5 melanoma
M14 melanoma = system: M14 melanoma
HT29 colon = system: HT29 colon
SN12C renal = system: SN12C renal
HCT-15 colon = system: HCT-15 colon
ACHN renal = system: ACHN renal
BT-549 breast = system: BT-549 breast
OVCAR-8 ovarian = system: OVCAR-8 ovarian
SK-MEL-28 melanoma = system: SK-MEL-28 melanoma
HCC-2998 colon = system: HCC-2998 colon

`CCCCCCN1C(=O)CC(=O)N(CCCCCC)S1(=O)=O` gave a TGI (A549 NSCLC) of over 100 µM, a TGI (COLO 205 colon) of 34.6 µM and a TGI (NCI-H23 lung) of 75.2 µM. It also gave a TGI (HCT-116 colon) of over 100 µM, a TGI (CAKI-1 renal) of 50.7 µM and a TGI (HOP-92 NSCLC) of 25.6 µM. For the same molecule, the TGI (EKVX NSCLC) was 41 µM, the TGI (K-562 leukemia) was over 100 µM and the TGI (LOX IMVI melanoma) was 36 µM. The TGI (CCRF-CEM leukemia) was 40.9 µM, the TGI (U251 CNS) was 33.1 µM and the TGI (NCI-H460 lung) was over 100 µM. The TGI (IGROV1 ovarian) was 25.9 µM, the TGI (SF-295 CNS) was 35.9 µM and the TGI (SF-539 CNS) was 41.9 µM. The TGI (SK-MEL-2 melanoma) was 28.5 µM, the TGI (MOLT-4 leukemia) was 51.6 µM and the TGI (A498 renal) was 27.8 µM. The TGI (SW-620 colon) was 41.9 µM, the TGI (TK-10 renal) was 41.6 µM and the TGI (UACC-62 melanoma) was 34.3 µM. For the same molecule, the TGI (HOP-62 NSCLC) was 35.9 µM, the TGI (SK-OV-3 ovarian) was 51.5 µM and the TGI (786-0 renal) was 35.8 µM. The TGI (UO-31 renal) was 3.46 µM, the TGI (MCF7 breast) was over 100 µM and the TGI (SNB-75 CNS) was 32.7 µM. It also gave a TGI (MDA-MB-435) of 53.5 µM, a TGI (RPMI-8226 leukemia) of 47.2 µM and a TGI (SR leukemia) of 61 µM. The TGI (HS 578T breast) was 45.9 µM, the TGI (KM12 colon) was over 100 µM and the TGI (MALME-3M melanoma) was 72.8 µM. For the same molecule, the TGI (T-47D breast) was over 100 µM, the TGI (OVCAR-4 ovarian) was 41 µM and the TGI (OVCAR-5 ovarian) was 41.1 µM. For the same molecule, the TGI (SF-268 CNS) was 36.9 µM, the TGI (NCI-H522 lung) was 27.4 µM and the TGI (NCI-H226 lung) was over 100 µM. The TGI (HL-60(TB) leukemia) was 48.9 µM, the TGI (OVCAR-3 ovarian) was 52.1 µM and the TGI (RXF 393 renal) was 34.1 µM. For the same molecule, the TGI (PC-3 prostate) was 60 µM, the TGI (UACC-257 melanoma) was over 100 µM and the TGI (NCI/ADR-RES ovarian) was 49.5 µM. For the same molecule, the TGI (MDA-MB-231 breast) was 33.2 µM, the TGI (SNB-19 CNS) was over 100 µM and the TGI (DU-145 prostate) was over 100 µM. It also gave a TGI (SK-MEL-5 melanoma) of 44.2 µM, a TGI (M14 melanoma) of over 100 µM and a TGI (HT29 colon) of 46.8 µM. The TGI (SN12C renal) was 37.1 µM.

With `O=C(CC(=O)N1N=C(N2c3ccccc3Sc3ccccc32)CC1c1ccccc1)Nc1ccccc1Cl` (stereo not given) the TGI (A549 NSCLC) was over 100 µM, the TGI (COLO 205 colon) was over 100 µM and the TGI (NCI-H23 lung) was over 100 µM. For the same molecule, the TGI (HCT-15 colon) was over 100 µM, the TGI (ACHN renal) was over 100 µM and the TGI (HCT-116 colon) was over 100 µM. The TGI (CAKI-1 renal) was over 100 µM, the TGI (HOP-92 NSCLC) was over 100 µM and the TGI (BT-549 breast) was over 100 µM. The TGI (EKVX NSCLC) was over 100 µM, the TGI (K-562 leukemia) was over 100 µM and the TGI (CCRF-CEM leukemia) was over 100 µM. For the same molecule, the TGI (U251 CNS) was over 100 µM, the TGI (NCI-H460 lung) was over 100 µM and the TGI (IGROV1 ovarian) was over 100 µM. The TGI (SF-295 CNS) was over 100 µM, the TGI (SF-539 CNS) was over 100 µM and the TGI (SK-MEL-2 melanoma) was over 100 µM. For the same molecule, the TGI (MOLT-4 leukemia) was over 100 µM, the TGI (A498 renal) was over 100 µM and the TGI (SW-620 colon) was over 100 µM. It also gave a TGI (TK-10 renal) of over 100 µM, a TGI (UACC-62 melanoma) of over 100 µM and a TGI (HOP-62 NSCLC) of over 100 µM. The TGI (786-0 renal) was over 100 µM, the TGI (OVCAR-8 ovarian) was over 100 µM and the TGI (UO-31 renal) was over 100 µM. The TGI (SNB-75 CNS) was over 100 µM, the TGI (MDA-MB-435) was over 100 µM and the TGI (RPMI-8226 leukemia) was over 100 µM. For the same molecule, the TGI (HS 578T breast) was over 100 µM, the TGI (SK-MEL-28 melanoma) was over 100 µM and the TGI (KM12 colon) was over 100 µM. The TGI (T-47D breast) was over 100 µM, the TGI (OVCAR-4 ovarian) was over 100 µM and the TGI (OVCAR-5 ovarian) was over 100 µM. It also gave a TGI (SF-268 CNS) of over 100 µM, a TGI (NCI-H522 lung) of over 100 µM and a TGI (NCI-H226 lung) of over 100 µM. It also gave a TGI (HL-60(TB) leukemia) of over 100 µM, a TGI (OVCAR-3 ovarian) of over 100 µM and a TGI (RXF 393 renal) of over 100 µM. The TGI (PC-3 prostate) was over 100 µM, the TGI (UACC-257 melanoma) was over 100 µM and the TGI (NCI/ADR-RES ovarian) was over 100 µM. For the same molecule, the TGI (MDA-MB-231 breast) was over 100 µM, the TGI (SNB-19 CNS) was over 100 µM and the TGI (HCC-2998 colon) was over 100 µM. The TGI (DU-145 prostate) was over 100 µM, the TGI (SK-MEL-5 melanoma) was over 100 µM and the TGI (M14 melanoma) was over 100 µM. It also gave a TGI (HT29 colon) of over 100 µM and a TGI (SN12C renal) of over 100 µM.
